Data: patent publication US20070190181A1, “Methods of treating cancer with lipid-based platinum compound forumulations administered intravenously” (priority 2005, published 2007)

Experiments:
[1] = Nephrotoxicity at MTD (BUN and kidney pathology grading); assay type: in vivo; settings: four days after injection
Source text: Nephrotoxicity. ICR mice, 7 weeks old, female, were divided into 4 groups with 3 to 4 mice in each. […] Four days after the injection, the mice were euthanized with Nembutal ip. The blood was drawn and the serum was isolated. The blood urea nitrogen (BUN) was quantitatively measured with a calorimetric method at Antech Diagnostics. Organs including duodenum, heart, kidney, liver, lung, and spleen were resected from the mice and fixed with 10% buffered Formalin. The fixed tissues were processed with standard procedure for H and E staining. A pathology expert Dr. Carman Tomos at the Memorial Sloan-Kettering Cancer Center examined kidney tissues and gave a toxicity grade to each kidney tissue sample. The grading was based on the general pathology guidelines for kidney toxicity.

[2] = Pharmacokinetics and organ distribution of ip and iv injected L-CDDP and CDDP (platinum by ICP-MS); assay type: in vivo, ICR mice; settings: 8 mg/kg
Protocol: Pharmacokinetics and organ distribution in animals of ip and iv injected lipid-based cisplatin and cisplatin (Part II). Sixty ICR mice (female, 7 weeks old) were divided into 4 groups. They received intraperitoneal or intravenous injection of L-CDDP or CDDP, separately. The dose was 12 mg/kg for ip L-CDDP and 8 mg/kg for the rest of treatment groups. At each designed time point, three to four mice were anaesthetized with 70 mg/kg of Nembutal ip (e.g., 3, 20, and 40 min, and 2, 8, 24, 48, and 72 h). […] Organs including liver, lung, and spleen were resected from the mice. The organ samples were homogenized in distilled water (4-fold of the sample weight) and digested with nitric acid. The platinum concentration in each sample was measured by Inductively Coupled Plasma-Mass Spectrometer (ICP-MS). The pharmacokinetics profiles (FIGS. 4, 5, and 6, all Y-axes are concentration of μg platinum in one gram of tissue or fluid per mg of injected dose) and parameters (Table 4) of each formulation were simulated and calculated.

Lewis Lung cells = assay: murine Lewis lung tumor metastasis model (lung tumor weight); assay type: in vivo, C57B1/6 mice

In the case of `N.N.[Cl][Pt][Cl]` [CDDP, cis diamminedichloroplatinum], the “increase of BUN level compared with normal controls” value ([1]; ip, p=0.04) is reported as 2.1 fold, the “increase of BUN level compared with normal controls” value ([1]; iv, p=0.008) is reported as 6.8 fold and the AUC ([2]; Liver) is reported as 19.96 µg·h/g/µg. For the same compound, the AUC ([2]; Lung) was 5.58 µg·h/g/µg, the AUC ([2]; Spleen) was 8.11 µg·h/g/µg and the “inhibition of growth of Lewis lung tumors” value (Lewis Lung cells; inhalation therapy, nebulized 1 mg/ml, days 5, 8 and 11) was “did not significantly inhibit”. The “inhibition of tumor growth (Lewis lung tumor weight vs saline)” value (Lewis Lung cells; three iv doses of 2 mg/kg on days 5, 8 and 11 post tumor cell injection) was “no significant inhibition of tumor growth”.
